One data set relates to CES1. Conditions: cited from earlier work.
For data set [1], the system named is CYP1A.
For data set [2] the following is noted: CYP1A1/2 KO compared with WT group; caffeine 5 mg/kg by gavage.
A further data set deals with Ldlr KO rats. Put plainly: Lan treatment of Ldlr KO rats. It is filed as in vivo, rat. Conditions: Lan 50 mg/kg/day p.o. for 21 days.
Data set [3] deals with food-borne hypercholesteremia rat model. The data set is described as follows: Lan treatment in food-borne hypercholesteremia rat model. It counts as in vivo.
The test system of data set [4] is CYP1A. Conditions: Lan 50 mg/kg/day for 7 days; cited from earlier work.
[5] abbreviates: RLM of KO rats compared with WT rats.
Where [6] appears, read: HCD + Lan 10 group (10 mg/kg/day, 11 weeks) vs HCD + Sol group.
Where [7] appears, read: HCD + Lan 50 group (50 mg/kg/day, 11 weeks) vs HCD + Sol group.

As to `CC(C)CCC[C@@H](C)[C@H]1CC[C@H]2[C@@H]3CC=C4C[C@@H](O)CC[C@]4(C)[C@H]3CC[C@]12C` [cholesterol], the “inhibitory effect on CES1” value with CES1 is “no inhibitory effect”.

With `C[C@@H](CO)CCC[C@@H](C)[C@H]1CC[C@H]2[C@@H]3CC=C4C[C@@H](O)CC[C@]4(C)[C@H]3CC[C@]12C` [27-hydroxycholesterol], the “inhibitory effect on CES1” value with CES1 is recorded as “strong selective inhibitory effect”.

In the case of `Cn1c(=O)c2c(ncn2C)n(C)c1=O` [caffeine], the “Km of caffeine metabolism in RLM” value in the data set with CYP1A [1] (KO versus WT rats RLM) is “remained unchanged”. For the same compound, in the data set on CYP1A [1] (setting [5]), the “decrease of CLint of caffeine” value was 50% and the “decrease of Vmax of 3-demethylation caffeine formation” value is 38%. The “increase of AUC of caffeine” value in data set [2] came out at 200%.

Take `Cc1c(OCC(F)(F)F)ccnc1C[S+]([O-])c1nc2ccccc2[nH]1` (centres unmarked) [Lan, Lansoprazole]: in the data set on Ldlr KO rats, the “lipids in serum, including TG, LDL-C, HDL-C, and T-C” value is reported as “remained unchanged”; the “liver lipidosis (HE staining)” value is “significantly alleviated”. In addition, the “CYP1A protein expression in the liver” value with Ldlr KO rats (Western blot) is listed as “significantly induced”. In data set [3] (setting [6]), the “decrease of serum LDL-C content” value turned out to be 40%, the “decrease of serum TG concentration” value is 27%, the “increase of HDL-C/LDL-C ratio” value is 170% and the “reduction of serum T-C content” value is given as 39%. In addition, in data set [3] (setting [7]), the “decrease of serum LDL-C content” value came out at 65%, the “decrease of serum TG concentration” value was found to be 42%, the “increase of HDL-C/LDL-C ratio” value is listed as 200% and the “reduction of serum T-C content” value is 47%. Moreover, the serum transaminases entry in data set [3] (HCD-fed rats, Lan treatment, 11 weeks) was “reduced serum transaminases to physiological levels”. Moreover, the “lipid accumulation in liver (oil red O staining)” value in data set [3] (both 10 and 50 mg/kg Lan groups vs HCD + Sol group, 11 weeks) is recorded as “less than that in the HCD + Sol group”. The “increase of the metabolic activity of CYP1A in rats” value with CYP1A [4] is 4 times.

The values above are taken from publication PMC9978856 (Acta Pharmaceutica Sinica. B, 2022).
